Test results published in patent publication US20040014813A1, “Anthelminthic agents for the prevention of parasitic infections in humans and animals II” (priority 2000, published 2004).

Tests used:
[1] = system: Schistosoma mansoni cercariae; assay: Activity against Schistosoma mansoni cercariae (survival/mobility under stereomagnifier); type: cell-based; design: key: no effect during the entire test period of 120 minutes; 1: weak effect (the cercariae have a strongly reduced mobility); 2: good effect (the cercariae are only slightly mobile and bent); 3: full effect (the cercariae are completely immobile); conditions: 500 >1/l final concentration of the active compounds; 5 μl active compound in 25 μl PEG300 + 9 ml aquarium water + 1 ml cercariae suspension; test period 120 minutes
Description: Activity Against Schistosoma Mansoni Cercariae
[500 >1/l Final Concentration of the Active Compounds]
Snails (Biomphalaria glabrata) were infected by incubating each of them with 8 miracidia in 10 ml of water overnight. About 6 to 9 weeks after the infection, cercariae were obtained by irradiating the snails, which had been kept in darkness, with light, followed by collection of the swarming cercariae within 2 hours.
Such an amount of cercariae-containing water (1 or 2 ml, see below) was added to the test batches that each batch contained about 100 to 150 cercariae.
5 μl of active compound were mixed thoroughly with 25 μl of PEG300. 9 ml of aquarium water was then added, and the batch was shaken vigorously. After (delayed) addition of 1 ml of cercariae suspension, survival of the cercariae was in each case observed immediately using a stereomagnifier.

[2] = EU Directive on Dangerous Substances; Registry of Toxic Effects of Chemical Substances; cited from earlier work
[3] = system: cercariae of Schistosoma mansoni; conditions: literature (Fripp and Armstrong 1973; Salafsky et al. 1998); cited from earlier work
[4] = system: cercariae of Schistosoma mansoni; conditions: literature (Bruce et al. 1992), monkeys, topical; cited from earlier work

In the case of `CCN(CC)C(=O)CC1CCCCC1`, the Assessment [1] is reported as 3.
In the case of `Oc1c(Cl)cc(Cl)c(Cl)c1Cc1c(O)c(Cl)cc(Cl)c1Cl` [hexachlorophene], the toxicity [2] is listed as “toxic on contact with the skin and when swallowed” and the “effect on cercariae of Schistosoma mansoni” value [3] is listed as “lethal effect”.
`CCCCC(=O)N1CCCCC1CCOC` (stereo not drawn) showed an Assessment [1] of 2.
In the case of `O=C(Nc1ccc([N+](=O)[O-])cc1Cl)c1cc(Cl)ccc1O` [Niclosamide], the toxicity [2] is given as “may possibly cause inheritable genetic damage” and the “action against the penetration of cercariae” value [4] is given as “acts against the penetration of cercariae”.
Work on `CCCCC(=O)N1CCCCC1CCO` (stereo not drawn) yielded an Assessment [1] of 2.
`CC(C)(C)C(=O)N1CCCCC1CCO` (stereo not drawn) gave an Assessment [1] of 3.
For `CCN(CC)C(=O)c1cccc(C)c1` [N,N-Diethyl-m-toluamide (DEET), N,N-Diethyl-m-toluamide], the “effect on cercariae of Schistosoma mansoni” value [3] is listed as “acts against cercariae”.
